Laboratory results as given in US6667387B1, “HCV core peptides” (priority 1992, dated 2003).
Ends that are not written are not given here. * marks the point of attachment. Biotin = O=C1N[C@H]2[C@H](CS[C@H]2CCCCC(=O)*)N1

Legend:
[1] = system: antibodies in sera from HCV-seropositive donors; assay: ELISA with HCV antibody-positive sera (biotinylated peptides on streptavidin- or avidin-coated plates, unbiotinylated peptides coated directly); format: binding, human; settings: for PEPTIDE ELISA (O.D.): Table 12, biotinylated 20-mers
How it was run: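 Peptides coated either directly at 2–5 or 3 μg/ml in carbonate buffer pH 9.6, or biotinylated at 1 μg/ml on streptavidin-coated wells (3 μg/ml). Plates casein-blocked, then human sera (1:100 or 1:20) incubated 1 h at 37° C. Bound antibody detected with HRP anti-human Ig/TMB, read as OD450.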

[2] = ELISA with seronegative / negative control sera (specificity); format: binding, human
How it was run: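 Specificity readout is OD at 450 nm (HRP goat anti-human Ig, TMB/H2O2, sulfuric acid stop), with ≥0.250 counted positive. Seronegative donor sera (typically 1:100, 1 h, 37° C) were applied to casein-blocked wells coated with peptide directly or via streptavidin capture of biotinylated peptide.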

[3] = Table 8, serum 8243 (HCV), Avidin
[4] = Table 8, serum 8247 (HCV), Avidin
[5] = Table 8, serum 8248 (HCV), Avidin
[6] = Table 8, serum 8269 (HCV), Avidin
[7] = Table 8, serum 8273 (HCV), Avidin
[8] = Table 8, serum 8278 (HCV), Avidin
[9] = Table 8, serum 8285 (HCV), Avidin
[10] = Table 8, serum 8290 (HCV), Avidin
[11] = Table 8, serum 8291 (HCV), Avidin
[12] = Table 8, serum 1782 (blood donor), Avidin
[13] = Table 8, serum 1784 (blood donor), Avidin
[14] = Table 8, serum 1785 (blood donor), Avidin
[15] = Table 8, serum 1794 (blood donor), Avidin

Bio-Gly-Gly-Gly-Ile-Trp-Gly-Cys-Ser-Gly-Lys-Leu-Ile-Cys-NH2 (Biotin-GGGIWGCSGKLIC-NH2; cysteine pairing not given here) [TM-HIV-1 Bio]
optical density (450 nm) [1, 3]: 0.108
optical density (450 nm) [1, 4]: 0.042
optical density (450 nm) [1, 5]: 0.043
optical density (450 nm) [1, 6]: 0.053
optical density (450 nm) [1, 7]: 0.053
optical density (450 nm) [1, 8]: 0.046
optical density (450 nm) [1, 9]: 0.134
optical density (450 nm) [1, 10]: 0.045
optical density (450 nm) [1, 11]: 0.048
optical density (450 nm) ([2]; Table 1, serum 180, seronegative donor): 0.005
optical density (450 nm) ([2]; Table 1, serum 194, seronegative donor): 0.000
optical density (450 nm) ([2]; Table 1, serum 195, seronegative donor): 0.000
optical density (450 nm) ([2]; Table 1, serum 204, seronegative donor): 0.001
optical density (450 nm) ([2]; Table 6, serum 1733, seronegative blood donor): 0.000
optical density (450 nm) ([2]; Table 6, serum 1747, seronegative blood donor): 0.000
optical density (450 nm) ([2]; Table 6, serum 1784, seronegative blood donor): 0.000
optical density (450 nm) [2, 12]: 0.052
optical density (450 nm) [2, 13]: 0.044
optical density (450 nm) [2, 14]: 0.046
optical density (450 nm) [2, 15]: 0.124

Bio-Gly-Gly-Tyr-Asn-Lys-Arg-Lys-Arg-Ile-His-Ile-Gly-Pro-Gly-Arg-Ala-Phe-Tyr-Thr-Thr-Lys-Asn-Ile-Ile-Gly-NH2 (Biotin-GGYNKRKRIHIGPGRAFYTTKNIIG-NH2) [V3-mn Bio]
optical density (450 nm) [1, 3]: 0.114
optical density (450 nm) [1, 4]: 0.052
optical density (450 nm) [1, 5]: 0.048
optical density (450 nm) [1, 6]: 0.056
optical density (450 nm) [1, 7]: 0.056
optical density (450 nm) [1, 8]: 0.053
optical density (450 nm) [1, 9]: 0.143
optical density (450 nm) [1, 10]: 0.050
optical density (450 nm) [1, 11]: 0.053
optical density (450 nm) ([2]; Table 2, negative control): 0.069
optical density (450 nm) ([2]; Table 3, Control, peptide bound to avidin): 0.063
optical density (450 nm) ([2]; Table 3, Control, peptide bound to streptavidin): 0.050
optical density (450 nm) [2, 12]: 0.059
optical density (450 nm) [2, 13]: 0.046
optical density (450 nm) [2, 14]: 0.048
optical density (450 nm) [2, 15]: 0.091

ETWKKPDYEPPVVHGCPLPP
optical density (450 nm) ([1]; Table 4G, serum 1, 20-fold dilution): 2.691
optical density (450 nm) ([1]; Table 4G, serum 33, 20-fold dilution): 1.813
optical density (450 nm) ([1]; Table 4G, serum 39, 20-fold dilution): 0.213
optical density (450 nm) ([1]; Table 4G, serum 47, 20-fold dilution): 2.611
optical density (450 nm) ([1]; Table 4G, serum 79, 20-fold dilution): 2.105
optical density (450 nm) ([1]; Table 4G, serum 83, 20-fold dilution): 1.232
optical density (450 nm) ([1]; Table 4G, serum 88, 20-fold dilution): 1.858
optical density (450 nm) ([1]; Table 4G, serum 89, 20-fold dilution): 2.309
optical density (450 nm) ([1]; Table 4G, serum 91, 20-fold dilution): 1.132
optical density (450 nm) ([1]; Table 4G, serum 99, 20-fold dilution): 1.526
optical density (450 nm) ([1]; Table 4G, serum 104, 20-fold dilution): 1.998
optical density (450 nm) ([1]; Table 4G, serum 105, 20-fold dilution): 2.053
optical density (450 nm) ([1]; Table 4G, serum 110, 20-fold dilution): 2.065
optical density (450 nm) ([1]; Table 4G, serum 111, 20-fold dilution): 1.542
optical density (450 nm) ([1]; Table 4G, serum 112, 20-fold dilution): 1.408
optical density (450 nm) ([1]; Table 4G, serum 116, 20-fold dilution): 1.978
optical density (450 nm) ([1]; Table 4G, serum 120, 20-fold dilution): 2.031
optical density (450 nm) ([1]; Table 5, sample 8242 (positive), peptide concentration 0.01 micrograms per milliliter, listed as HCV peptide XVIII): 1.185
optical density (450 nm) ([1]; Table 5, sample 8242 (positive), peptide concentration 0.03 micrograms per milliliter, listed as HCV peptide XVIII): 1.188
optical density (450 nm) ([1]; Table 5, sample 8242 (positive), peptide concentration 0.1 micrograms per milliliter, listed as HCV peptide XVIII): 0.946
optical density (450 nm) ([1]; Table 5, sample 8242 (positive), peptide concentration 0.3 micrograms per milliliter, listed as HCV peptide XVIII): 0.873
optical density (450 nm) ([1]; Table 5, sample 8242 (positive), peptide concentration 1.0 micrograms per milliliter, listed as HCV peptide XVIII): 0.839
optical density (450 nm) ([1]; Table 5, sample 8242 (positive), peptide concentration 3.0 micrograms per milliliter, listed as HCV peptide XVIII): 0.749
optical density (450 nm) ([1]; Table 5, sample 8243 (positive), peptide concentration 0.01 micrograms per milliliter, listed as HCV peptide XVIII): 0.462
optical density (450 nm) ([1]; Table 5, sample 8243 (positive), peptide concentration 0.03 micrograms per milliliter, listed as HCV peptide XVIII): 0.611
optical density (450 nm) ([1]; Table 5, sample 8243 (positive), peptide concentration 0.1 micrograms per milliliter, listed as HCV peptide XVIII): 0.661
optical density (450 nm) ([1]; Table 5, sample 8243 (positive), peptide concentration 0.3 micrograms per milliliter, listed as HCV peptide XVIII): 0.629
optical density (450 nm) ([1]; Table 5, sample 8243 (positive), peptide concentration 1.0 micrograms per milliliter, listed as HCV peptide XVIII): 0.627
optical density (450 nm) ([1]; Table 5, sample 8243 (positive), peptide concentration 3.0 micrograms per milliliter, listed as HCV peptide XVIII): 0.671
optical density (450 nm) ([1]; Table 5, sample 8318 (positive), peptide concentration 0.01 micrograms per milliliter, listed as HCV peptide XVIII): 1.711
optical density (450 nm) ([1]; Table 5, sample 8318 (positive), peptide concentration 0.03 micrograms per milliliter, listed as HCV peptide XVIII): 2.308
optical density (450 nm) ([1]; Table 5, sample 8318 (positive), peptide concentration 0.1 micrograms per milliliter, listed as HCV peptide XVIII): 2.409
optical density (450 nm) ([1]; Table 5, sample 8318 (positive), peptide concentration 0.3 micrograms per milliliter, listed as HCV peptide XVIII): 2.392
optical density (450 nm) ([1]; Table 5, sample 8318 (positive), peptide concentration 1.0 micrograms per milliliter, listed as HCV peptide XVIII): 2.396
optical density (450 nm) ([1]; Table 5, sample 8318 (positive), peptide concentration 3.0 micrograms per milliliter, listed as HCV peptide XVIII): 2.391
optical density (450 nm) ([1]; Table 5, sample 8326 (positive), peptide concentration 0.01 micrograms per milliliter, listed as HCV peptide XVIII): 1.848
optical density (450 nm) ([1]; Table 5, sample 8326 (positive), peptide concentration 0.03 micrograms per milliliter, listed as HCV peptide XVIII): 2.219
optical density (450 nm) ([1]; Table 5, sample 8326 (positive), peptide concentration 0.1 micrograms per milliliter, listed as HCV peptide XVIII): 2.331
optical density (450 nm) ([1]; Table 5, sample 8326 (positive), peptide concentration 0.3 micrograms per milliliter, listed as HCV peptide XVIII): 2.331
optical density (450 nm) ([1]; Table 5, sample 8326 (positive), peptide concentration 1.0 micrograms per milliliter, listed as HCV peptide XVIII): 2.331
optical density (450 nm) ([1]; Table 5, sample 8326 (positive), peptide concentration 3.0 micrograms per milliliter, listed as HCV peptide XVIII): 2.315
optical density (450 nm) [1, 3]: 0.118
optical density (450 nm) [1, 4]: 0.046
optical density (450 nm) [1, 5]: 0.905
optical density (450 nm) [1, 6]: 1.513
optical density (450 nm) [1, 7]: 0.052
optical density (450 nm) [1, 8]: 0.052
optical density (450 nm) [1, 9]: 0.146
optical density (450 nm) [1, 10]: 2.323
optical density (450 nm) [1, 11]: 0.049
PEPTIDE ELISA (O.D.) ([1]; serum 0843): 0.127
PEPTIDE ELISA (O.D.) ([1]; serum 8240): 1.511
PEPTIDE ELISA (O.D.) ([1]; serum 8241): 0.273
PEPTIDE ELISA (O.D.) ([1]; serum 8242): 2.453
PEPTIDE ELISA (O.D.) ([1]; serum 8332): 2.290
PEPTIDE ELISA (O.D.) ([1]; serum 8339): 2.757
PEPTIDE ELISA (O.D.) ([1]; serum 8350): 0.182
PEPTIDE ELISA (O.D.) ([1]; serum 8377): 1.378
PEPTIDE ELISA (O.D.) ([1]; serum 8378): 2.337
PEPTIDE ELISA (O.D.) ([1]; serum 8388): 2.358
optical density (450 nm) ([2]; Table 4G, negative serum): 0.001
optical density (450 nm) ([2]; Table 5, sample 1747 (negative), peptide concentration 0.01 micrograms per milliliter, listed as HCV peptide XVIII): 0.042
optical density (450 nm) ([2]; Table 5, sample 1747 (negative), peptide concentration 0.03 micrograms per milliliter, listed as HCV peptide XVIII): 0.058
optical density (450 nm) ([2]; Table 5, sample 1747 (negative), peptide concentration 0.1 micrograms per milliliter, listed as HCV peptide XVIII): 0.044
optical density (450 nm) ([2]; Table 5, sample 1747 (negative), peptide concentration 0.3 micrograms per milliliter, listed as HCV peptide XVIII): 0.061
optical density (450 nm) ([2]; Table 5, sample 1747 (negative), peptide concentration 1.0 micrograms per milliliter, listed as HCV peptide XVIII): 0.042
optical density (450 nm) ([2]; Table 5, sample 1747 (negative), peptide concentration 3.0 micrograms per milliliter, listed as HCV peptide XVIII): 0.047
optical density (450 nm) ([2]; Table 5, sample 1781 (negative), peptide concentration 0.01 micrograms per milliliter, listed as HCV peptide XVIII): 0.045
optical density (450 nm) ([2]; Table 5, sample 1781 (negative), peptide concentration 0.03 micrograms per milliliter): 0.051
optical density (450 nm) ([2]; Table 5, sample 1781 (negative), peptide concentration 0.1 micrograms per milliliter, listed as HCV peptide XVIII): 0.048
optical density (450 nm) ([2]; Table 5, sample 1781 (negative), peptide concentration 0.3 micrograms per milliliter, listed as HCV peptide XVIII): 0.048
optical density (450 nm) ([2]; Table 5, sample 1781 (negative), peptide concentration 1.0 micrograms per milliliter, listed as HCV peptide XVIII): 0.048
optical density (450 nm) ([2]; Table 5, sample 1781 (negative), peptide concentration 3.0 micrograms per milliliter, listed as HCV peptide XVIII): 0.053
optical density (450 nm) [2, 12]: 0.053
optical density (450 nm) [2, 13]: 0.047
optical density (450 nm) [2, 14]: 0.047
optical density (450 nm) [2, 15]: 0.104
